Measurements from patent US20090012085A1, “DOSAGE FORMS AND METHODS OF TREATMENT USING A TYROSINE KINASE INHIBITOR” (priority 2005, published 2009).

Experiments:
solid tumor malignancies = assay: Efficacy study in humans with solid tumors (RECIST, CT scan or MRI); type: in vivo, human; set-up: key to Response time and response: PR means partial response; CR means complete response
Source text: Complete Response (CR), as used herein, unless otherwise indicated, refers to disappearance of all measurable and nonmeasurable lesions and no appearance of new lesions in a patient under the treatment of compound of formula 1, its pharmaceutically acceptable salt or solvate thereof, or a mixture thereof.
Partial Response (PR), as used herein, unless other wise indicated, refers to at least a 30% decrease in the sum of the LDs of target lesions (taking as reference the baseline sum), without progression of nontarget lesions and no appearance of new lesions in a patient under treatment of compound of formula 1, its pharmaceutically acceptable salt or solvate thereof, or a mixture thereof.
50 patients were treated under a dose-escalating multicenter study of patients with solid tumor malignancies not amenable to conventional therapies. The types of tumor malignancies that the patients had included colorectal carcinoma, renal cell carcinoma, esophageal carcinoma, thymus carcinoma, mastocytosis, lung cancer and multiple endocrine neoplasia type II and other malignances. Patients were treated in cohorts of 6 with escalating QD (once per day) doses of a maleate salt of a compound of formula 1. Each study cycle was a five week cycle consisting of 4 weeks of treatment followed by 1 week of rest (4/1 schedule) or a five week cycle of continuous dosing without any rest period.
Of these 50 patients, all patients were evaluated for efficacy determinations. Tumor size was measured at the end of each cycle of treatment. […] The partial response of four of these seven patients was confirmed by a repeat assessment four weeks later. The partial response of the other three patients has not been confirmed. The tumor shrinkage was determined by either CT scan or MRI as per RECIST criteria.

[1] = system: solid and hematopoietic cancer xenograft models; details: diverse preclinical solid and hematopoietic cancer xenograft models; cited from earlier work

With Cc1[nH]c(/C=C2\C(=O)Nc3ccc(F)cc32)c(C)c1C(=O)NC[C@H](O)CN1CCOCC1 [compound 1, 5-[(Z)-(5-fluoro-2-oxo-1,2-dihydro-3H-indol-3-ylidene)methyl]-N-[(2S)-2-hydroxy-3-morpholin-4-ylpropyl]-2,4-dimethyl-1H-pyrrole-3-carboxamide] the “Response time and response” value (solid tumor malignancies; Patient 1, Renal cell carcinoma, 50 mg 4/1 QD, after 2nd cycle) was “PR”, the “Response time and response” value (solid tumor malignancies; Patient 1, Renal cell carcinoma, 50 mg 4/1 QD, at cycle 5) was “CR” and the “Response time and response” value (solid tumor malignancies; Patient 2, Biliary cell Carcinoma, 100 mg 4/1 QD, at cycle 5, confirmed) was “PR at cycle 5, confirmed”. The “Response time and response” value (solid tumor malignancies; Patient 3, Thyroid carcinoma, 150 mg QD 4/1, after 1st cycle, confirmed) was “PR after 1st cycle,”, the “Response time and response” value (solid tumor malignancies; Patient 4, Colon adenocarcinoma, 150 mg QD 4/1, after 1st cycle, not confirmed) was “PR after 1st cycle, not” and the “Response time and response” value (solid tumor malignancies; Patient 5, Renal cell carcinoma, 250 mg QD 4/1, after 1st cycle, confirmed) was “PR after 1st cycle,”. For the same molecule, the “Response time and response” value (solid tumor malignancies; Patient 6, Alveolar soft tissue carcinoma, cycle 1 250 mg QD 4/1, cycle 2 and beyond 200 mg QD 4/1, not confirmed) was “PR, not confirmed”, the “Response time and response” value (solid tumor malignancies; Patient 7, Renal cell carcinoma, 150 mg continuous, after 1st cycle, not confirmed) was “PR after 1st cycle, not” and the “Response time and response” value (solid tumor malignancies; Patient 8, Thymoma, cycle 1 150 mg continuous, cycle 2 and beyond 100 mg continuous, not confirmed) was “PR, not confirmed”. For the same molecule, the “patients showing complete response” value (solid tumor malignancies; among the 50 patients) was 1 patient, the “patients showing partial response” value (solid tumor malignancies; among the 50 patients) was 7 patients and the “partial responses confirmed by a repeat assessment four weeks later” value (solid tumor malignancies; of the seven patients with partial response) was “four”. For the same molecule, the anti-tumor activity [1] was “has anti-tumor activity”.
